Results reported in US10787432B2, “N-[(pyridyloxy)propanyl]benzamides” (Boehringer Ingelheim International GmbH, priority 2016, dated 2020).
Where two headings read alike, the source gives them in different places.

Experiments:
human Orexin 1 receptor = target: T1, human Orexin 1 receptor (Homo sapiens, UniProt O43613); assay: Assay A: In vitro testing of OX1R potency: OX1R IP1 (HTRF, CHO-K1/hOX1 cells, Orexin A as agonist); type: cell-based; details: for Kb: read-out: OX1R Kb (Orexin A concentration used)
T1 construct: stably expressing the full-length human Orexin 1 receptor; expressed in transfected cells; host or cells: CHO-K1 (CHO-K1/hOX1), co-expressing aequorin
T1 sequence (O43613 1-425): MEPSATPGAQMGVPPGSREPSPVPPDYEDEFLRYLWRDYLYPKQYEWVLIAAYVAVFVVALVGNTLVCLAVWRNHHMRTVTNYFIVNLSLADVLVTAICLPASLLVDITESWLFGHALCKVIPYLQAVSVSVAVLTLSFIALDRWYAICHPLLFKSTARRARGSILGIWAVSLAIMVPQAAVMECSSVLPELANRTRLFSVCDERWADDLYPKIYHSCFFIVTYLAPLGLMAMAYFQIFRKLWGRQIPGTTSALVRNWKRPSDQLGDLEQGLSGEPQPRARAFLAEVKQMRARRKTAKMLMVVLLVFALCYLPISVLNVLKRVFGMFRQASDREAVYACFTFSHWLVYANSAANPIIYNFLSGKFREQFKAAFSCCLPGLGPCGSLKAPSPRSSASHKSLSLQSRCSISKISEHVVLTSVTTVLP

human orexin 2 receptor = target: T2, human orexin 2 receptor (Homo sapiens, UniProt O43614); assay: Assay B: In vitro testing of OX2R potency: OX2R IP1 (HTRF, CHO-K1/hOX2 cells, Orexin A as agonist); type: cell-based; details: Orexin A 0.5 nM
T2 construct: stably expressing the full-length human orexin 2 receptor; expressed in transfected cells; host or cells: CHO-K1 (CHO-K1/hOX2), co-expressing aequorin
T2 sequence (O43614 1-444): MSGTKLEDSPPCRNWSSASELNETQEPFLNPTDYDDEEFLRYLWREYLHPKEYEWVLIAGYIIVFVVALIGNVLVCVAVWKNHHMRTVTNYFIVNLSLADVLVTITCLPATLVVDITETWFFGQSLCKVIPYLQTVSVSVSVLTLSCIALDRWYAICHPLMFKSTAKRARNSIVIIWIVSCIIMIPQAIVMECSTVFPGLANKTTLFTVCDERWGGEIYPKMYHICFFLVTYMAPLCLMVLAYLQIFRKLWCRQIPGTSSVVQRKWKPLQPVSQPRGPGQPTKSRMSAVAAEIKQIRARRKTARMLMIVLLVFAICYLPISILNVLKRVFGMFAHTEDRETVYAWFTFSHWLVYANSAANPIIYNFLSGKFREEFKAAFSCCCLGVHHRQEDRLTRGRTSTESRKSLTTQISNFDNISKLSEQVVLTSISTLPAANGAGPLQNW
Description: Activation of the orexin receptors expressed in cell lines results in an increase in intracellular IP3 concentration. IP1, a downstream metabolite of IP3, accumulates in cells following receptor activation and is stable in the presence of LiCl. Using Homogeneous Time-Resolved Fluorescence technology with Lumi4-Tb cryptate (commercially available from Cisbio Bioassay.) and a suitable fluorescence plate reader. […] Chem. Genomics 2009, 3, 22-32. This technique is used to characterize pharmacological modification of the orexin receptors.
B. In Vitro Testing of OX2R Potency: OX2R IP1
IP1 measurements are performed in CHO-K1 cells stably expressing the full-length human orexin 2 receptor and the aequorin photoprotein. Cells are cultivated in Ham's nutrient mixture F12 medium with 10% fetal calf serum, in a 37° C., 95% humidity and 5% CO2 incubator. The CHO-K1/hOX2 cell mass is expanded to larger cell numbers. The cells are obtained as frozen cells in cryo-vials and stored until use at −150° C. The viability of the cells after thawing is >90%. In preparation for the assay, 24 hours before the assay, the cells are thawed at 37° C. and immediately diluted with cell culture medium. After centrifugation, the cell pellet is resuspended in medium and then distributed into the assay plates with a density of 5000 cells/25 μL per well. The plates are incubated for one hour at room temperature to reduce edge effects before they are incubated for 24 hours at 37° C./5% CO2. Compounds are prepared by a 8-point serial dilution in DMSO and a final dilution step into assay buffer (HBSS with 20 mM HEPES, 0.1% BSA and 50 mM LiCl, pH 7.4) to ensure a final DMSO concentration of 1% in the assay.
On the day of the assay, cells in the plate are washed twice with 60 μL assay buffer (20 μL buffer remained in the wells after washing), followed by adding 5 μL per well of compounds diluted in assay buffer. After 15 minutes of incubation at room temperature 5 μL per well of Orexin A peptide (final concentration: 0.5 nM) dissolved in assay buffer is added to the assay plate. The assay plate is incubated for 60 minutes at 37° C. Then 5 μL per well of Anti-IP1-Cryptate Tb solution and 5 μL per well of IP1-d2 dilution are added to all well of the plate and the plate is incubated for a further 60 minutes light protected at room temperature. The emission at 615 nm and 665 nm (Excitation wavelength: 320 nm) are measured using an EnVision reader (PerkinElmer). The ratio between the emission at 665 nm and 615 is calculated by the reader.
8-point four parametric non-linear curve fitting and determination of IC50 values and Hill slopes is performed using a regular analysis software e.g. AssayExplorer (Accelrys). In order to establish an agonist concentration independent parameter, Kb values are calculated using the following equation: IC50/((2+(A/EC50)n)^1/n−1) (with A=concentration agonist, EC50=EC50 agonist, n=Hill slope agonist) (see P. Leff, I. G. Dougall, Trends Pharmacol. Sci. 1993, 14(4), 110-112).
Kb values from Assay A (OX1R) and Assay B (OX2R) can then provide a selectivity ratio which is independent of the agonist (Orexin A) concentration.

[1] = Assay C: Metabolic stability in human liver microsomes (Human MST); type: in vitro ADME; details: pooled human liver microsomes, pH 7.6; human liver microsomes 1 mg/mL, compound 1 μM, 37° C., NADPH; read-out: Human MST t1/2
Method: C. Assessment of Metabolic Stability in Human Liver Microsomes (Human MST)
The metabolic stability of the compounds according to the invention may be investigated as follows:
The metabolic degradation of the test compound is assayed at 37° C. with pooled human liver microsomes. The final incubation volume of 100 μL per time point contains TRIS buffer pH 7.6 at room temperature (0.1 M), MgCl2 (5 mM), microsomal protein (1 mg/mL) and the test compound at a final concentration of 1 μM. Following a short pre-incubation period at 37° C., the reactions are initiated by addition of beta-nicotinamide adenine dinucleotide phosphate, reduced form (NADPH, 1 mM), and terminated by transferring an aliquot into solvent after different time points. After centrifugation (10000 g, 5 min), an aliquot of the supernatant is assayed by LC-MS/MS for the amount of parent compound. The half-life (t1/2) is determined by the slope of the semi-logarithmic plot of the concentration-time profile.

Compound | OX2R Kb/OX1R Kb (human Orexin 1 receptor; OX1R Kb at 50 nM Orexin A) | Kb (human Orexin 1 receptor; Orexin A 50 nM) | Kb (human orexin 2 receptor) | half-life at 1 μM [1] | OX2R Kb/OX1R Kb (human Orexin 1 receptor; OX1R Kb at 0.5 nM Orexin A) | Kb (human Orexin 1 receptor; Orexin A 0.5 nM) | OX2R Kb/OX1R Kb (human Orexin 1 receptor; OX1R Kb at 0.5 nM and 50 nM Orexin A) | Kb (human Orexin 1 receptor; Orexin A 0.5 nM and 50 nM)
CCN(C(=O)c1ccc(Cl)cc1-n1nccn1)[C@@H](C)COc1ncc(C(F)(F)F)cc1F [Example 73] | 734 | 0.32 nM | 235 nM | 12 min | – | – | – | –
CCN(C(=O)c1cc(F)c(F)cc1-n1nccn1)[C@@H](C)COc1ncc(C(F)(F)F)cc1F [Example 52] | – | – | 538 nM | 38 min | 256 | 2.1 nM | – | –
CCN(C(=O)c1ccccc1-n1nccn1)[C@@H](C)COc1ccc(C(F)(F)F)cn1 [Example 10] | 117 | 0.18 nM | 21 nM | 24 min | – | – | – | –
CCN(C(=O)c1ccc(OC)cc1-c1ncccn1)[C@@H](C)COc1ccc(C(F)(F)F)cn1 [Example 118] | 2875 | 0.032 nM | 92 nM | 15 min | – | – | – | –
CCN(C(=O)c1cccc(Cl)c1-n1nccn1)[C@@H](C)COc1ccc(OC(F)(F)F)cn1 [Example 134] | 86 | 0.14 nM | 12 nM | 64 min | – | – | – | –
CCN(C(=O)c1cc(C#N)ccc1-n1nccn1)[C@@H](C)COc1ncc(C(F)(F)F)cc1F [Example 57] | 214 | 0.95 nM | 203 nM | > 130 min | – | – | – | –
CCN(C(=O)c1ccccc1-c1cnc(C)nc1)[C@@H](C)COc1ccc(C(F)(F)F)cn1 [Example 85] | – | – | 583 nM | 17 min | 68 | 8.6 nM | – | –
CCN(C(=O)c1cccc(C)c1-c1nnc(C)o1)[C@@H](C)COc1ccc(C(F)(F)F)cn1 [Example 20] | 292 | 0.12 nM | 35 nM | 20 min | – | – | – | –
CCN(C(=O)c1c(F)cccc1-c1ncccn1)[C@@H](C)COc1ccc(C(F)(F)F)cn1 [Example 116] | 205 | 0.22 nM | 45 nM | 33 min | 132 | 0.34 nM | – | –
CCN(C(=O)c1ccccc1-c1cnnc(C)c1)[C@@H](C)COc1ccc(C(F)(F)F)cn1 [Example 84] | – | – | 1290 nM | 11 min | 150 | 8.6 nM | – | –
CCN(C(=O)c1cccc(F)c1-c1nnc(C)o1)[C@@H](C)COc1ncc(C(F)(F)F)cc1F [Example 61] | – | – | 1480 nM | 26 min | 452 | 3.27 nM | – | –
CCN(C(=O)c1ccc(OC)cc1-n1nccn1)[C@@H](C)COc1ncc(C(F)(F)F)cc1F [Example 131] | 900 | 0.5 nM | 450 nM | 11 min | 506 | 0.89 nM | – | –
CCN(C(=O)c1cccc(F)c1-n1nccn1)[C@@H](C)COc1ncc(C(F)(F)F)cc1Cl [Example 110] | 312 | 0.17 nM | 53 nM | 100 min | – | – | – | –
CCN(C(=O)c1c(F)cccc1-n1nccn1)[C@@H](C)COc1ccc(C(F)(F)F)cn1 [Example 94] | 211 | 0.37 nM | 78 nM | 31 min | – | – | – | –
CCN(C(=O)c1ccc(C#N)cc1-n1nccn1)[C@@H](C)COc1ncc(C(F)(F)F)cc1F [Example 69] | – | – | 4340 nM | 43 min | 136 | 32 nM | – | –
CCN(C(=O)c1ccc(Cl)cc1-n1nccn1)[C@@H](C)COc1ccc(C(F)(F)F)cn1 [Example 26] | 400 | 0.055 nM | 22 nM | 15 min | – | – | – | –
CCN(C(=O)c1ccc(F)cc1-n1nccn1)[C@@H](C)COc1ccc(Cl)cn1 [Example 28] | – | – | 86 nM | 39 min | – | – | 51 | 1.7 nM
CCN(C(=O)c1cccc(F)c1-c1nnc(C)o1)[C@@H](C)COc1ccc(Cl)cn1 [Example 36] | – | – | 542 nM | 72 min | 139 | 3.9 nM | – | –
CCN(C(=O)c1cccc(F)c1-n1nccn1)[C@@H](C)COc1ncc(C(F)(F)F)cc1F [Example 113] | – | – | 69 nM | 95 min | 173 | 0.4 nM | – | –
CCN(C(=O)c1ccc(Cl)cc1-n1nccn1)[C@@H](C)COc1ccc(Cl)cn1 [Example 45] | 59 | 0.354 nM | 21 nM | 18 min | – | – | – | –
CCN(C(=O)c1ccccc1-n1nccn1)[C@@H](C)COc1ccc(Cl)cn1 [Example 46] | 56 | 0.66 nM | 37 nM | 35 min | – | – | – | –
CCN(C(=O)c1cccc(F)c1-c1ncccn1)[C@@H](C)COc1ccc(OC(F)(F)F)cn1 [Example 130] | 133 | 0.15 nM | 20 nM | > 130 min | – | – | – | –
CCN(C(=O)c1ccc(F)c(F)c1-n1nccn1)[C@@H](C)COc1ccc(C(F)(F)F)cn1 [Example 91] | 340 | 0.2 nM | 68 nM | 18 min | – | – | – | –
CCN(C(=O)c1ccccc1-c1cnn(C)c1)[C@@H](C)COc1ncc(C(F)(F)F)cc1F [Example 132] | – | – | 152 nM | 11 min | 89 | 1.7 nM | – | –
